Test results: US20080113907A1, “Uses Of Galectin-2” (Charite-Universitat-Smedizin Berlin, priority 2004, published 2008)

B1: CD7 (receptor, human, UniProt P09564 26-240, looked up)
chain: AQEVQQSPHCTTVPVGASVNITCSTSGGLRGIYLRQLGPQPQDIIYYEDGVVPTTDRRFRGRIDFSGSQDNLTITMHRLQLSDTGTYTCQAITEVNVYGSGTLVLVTEEQSQGWHRCSDAPPRASALPAPPTGSALPDPQTASALPDPPAASALPAALAVISFLLGLGLGVACVLARTQIKKLCSWRDKNSAACVVYEDMSHSRCNTLSSPNQYQ
notes: whole, on cells
B2: Galectin-2 (ligand, UniProt P05162 1-132, looked up)
chain: MAGELEVKNMDMKPGSTLKITGSIADGTDGFVINLGQGTDKLNLHFNPRFSESTIVCNSLDGSNWGQEQREDHLCFSPGSEVKFTVTFESDKFKVKLPDGHELTFPNRLGHSHLSYLSVRGGFNMSSFKLKE
modifications: biotinylated (sites not given) in the flow cytometry binding assays; coupled to tosylactivated magnetic beads in the pull-down
notes: The NcoI site gave a Thr(Ser)2Ala substitution: Thr in human, Ser in rat; also called Gal-2; biotinylated Gal-2

Key:
[1] = tested on: T cells (PBT, LPT); experiment: Adhesion assay to collagen type I and fibronectin; assay type: cell-based, human; details: CD3 activated PBT
Protocol: 96 well flat-bottom plates were precoated overnight at 4° C. with 12 μg/well fibronectin (Chemicon) in DPBS, 40 μg/well collagen type I (Sigma-Aldrich) in 0.1 M acetic acid, or 3% BSA (Sigma-Aldrich) in DPBS as a control and then washed three times with DPBS. Freshly isolated T cells were fluorescently-labelled with 5 μM calcein-AM (Molecular Probes, Eugene, Oreg.) for 30 min at 37° C. in 5% CO2 at 5×10^6 cells/ml in RPMI. The cells were then washed three times with RPMI containing 5% FCS. Calcein-labelled T cells were resuspended in RPMI and 5×10^5 T cells/well were added to 96-well plates containing purified ECM components or BSA for the indicated times. Saturating concentrations of integrin-blocking mAbs (predetermined by flow cytometry) were preincubated with T cells for 30 min at 37° C. before adding T cells to the wells for the adhesion assay. Nonadherent cells were removed by a standardized washing technique that was developed to minimize background binding, which includes both an orbital and a rocking motion repeated three times with RPMI. Adhesion was quantified with a multiwell fluorescent spectrophotometer (Tecan, Groedig, Austria). For each experimental group the results were expressed as the mean percentage±SD of bound T cells from triplicate wells.

[2] = tested on: PBT; experiment: Analysis of T cell cycling (DNA content, cyclin B1, cell cycle regulators); assay type: cell-based, human; details: anti-CD3 activated PBT; dropped from 8% (galectin-1) and 7% (galectin-7)
Protocol: (§1) For immunoblotting cells were washed in PBS, and lysed in cell lysis buffer (1% Triton-X, 0.5% NP-40, 0.1% SDS, 0.5% sodium deoxycholate, 5 mM EDTA, 50 mM and 50 mM protease- and phosphatase-inhibitor cocktail 2, 1 mM PMSF, 100 μg/ml trypsin-chymotrypsin inhibitor, 100 μg/ml chymostatin in PBS). The concentration of proteins in each lysate was measured using the Bio-Rad protein assay (Bio-Rad Laboratories, Hercules, Calif.). Equivalent amounts of protein (10 μg) were fractionated on a 10-20% Tris-glycine gel and electrotransferred to a nitrocellulose membrane (Novex, San Diego, Calif.). Membranes were blocked with 5% milk in 0.1% Tween 20-PBS (Fisher Scientific, Hanover Park, Ill.), followed by incubation for 60 m in at room temperature with the indicated primary antibody. The membranes were washed six times with 0.1% Tween 20-PBS and then incubated for 1 h with the appropriate horseradish peroxidase-conjugated secondary antibody (Santa Cruz Biotechnology), washed, and incubated with the chemiluminescent substrate (Perkin-Elmer, Carlsbad, Calif.) for 5 minutes. The membranes were then exposed to film (Amersham, Arlington Heights, Ill.).
Flow cytometry was performed after staining for DNA content, and cyclin B1, essentially as previously described (21). Briefly, cells were washed twice with PBS, adjusted to 1×10^6 cells/sample and fixed in 90% Methanol at −20° C. After fixation, cells were washed twice with PBS, incubated for 45 min at 4° C. with a cyclin B1-FITC conjugated monoclonal antibody. After the final wash, cells were resupended in PBS and 5 μl of RNase (0.6 μg/ml, 30-60 Kunitz Units, Sigma), incubated at 37° C. for 15 min and the chilled on ice. One hundred and twenty five microliters of PI (200 μg/ml) were added prior to analysis by flow cytometry. Each analysis was performed on at least 25.000 events.

[3] = tested on: T cells (PBT, LPT); experiment: Integrin accessibility on T cell surface (flow cytometry); assay type: cell-based, human; details: CD3 activated PBT
Protocol: For surface staining, cells were washed twice in ice-cold PBS and 1×10^6 cells were resuspended in flow buffer (HBSS containing 1% BSA and 0.1% sodium azide). Cells were incubated with the respective mAb at predetermined saturating concentrations or with isotype-matched nonspecific mouse mAb (DAKO) for 30 min at 4° C., washed twice with flow buffer, and incubated with FITC-conjugated goat anti-mouse IgG for 30 min at 4° C. The cells were again washed twice with flow buffer, fixed in 1% paraformaldehyde and analyzed by a single laser flow cytometer (FacsCalibur, […]), using Cell Quest software (BD Pharmingen). Cells stained with a negative control Ab were gated to contain <2% positive cells. To perform analysis of intracellular proteins, cells were washed twice with PBS, adjusted to 1×10^6 cells per sample, and fixed in 90% methanol at −20° C. After fixation, cells were washed twice with PBS and incubated with a monoclonal mouse anti-bax, Bcl-2, Rb, Cyclin A, p21, p27, or p53 antibody for 45 minutes at 4° C., followed by an incubation with a goat anti-mouse FITC-conjugated mAb (Biosource) for 45 minutes at 4° C. Thereafter cells were washed and analyzed by flow cytometry as described above. The background level of immunofluorescence was determined by incubating cells with FITC-conjugated mouse IgG (isotype control).

[4] = tested on: CD3, CD7, β1 integrin; experiment: Magnetic separation / co-immunoprecipitation of galectin containing complexes; assay type: binding, human; details: galectin coated beads, immunoblot for CD3, CD7, β1
Protocol: as §1, with “Ill.). […]” for “Ill.).”

[5] = target: T1, BSA (UniProt P02769 25-607, coupled to tosylactivated magnetic beads); experiment: pull-down from T cells with BSA-coated magnetic beads, Western blot
T1 construct: Negative control for the bead pull-down; also called BSA control

[6] = target: B1; experiment: pull-down from T cells with Gal-2-coated magnetic beads, Western blot; agrees with antibody blocking in flow cytometry
Protocol: A) Cells were preincubated with CD3, CD7, and β1 mAb (1:100 dilution) for 1 h at RT and then cultured for additional 24 h in the presence of 5 μg/ml galectin-2 coupled to biotin. Cells were then harvested and binding of galectin-2 to T cells determined by two-color flow cytometry using streptavidin labelled-APC to detect biotinylated sites. B) Galectin-1 coimmunoprecipitates with CD3, CD7 and β1 integrin, whereas galectin-2 coimmunoprecipitate only with integrin β1. Cells were incubated with galectin-1 or -2 coated tosyl-activated beads and subsequently lysed. Bead-bound cell fragments were separated magnetically and immunoblotted for CD3, CD7 or β1. Both graphs are representative for four different experiments yielding similar results.
For separation of galectin-2-associated complexes, 1×10⁸ tosylactivated, supermagnetic, polysterene coated beads (Dynalbeads, Dynal Biotech, Oslo, Norway) were coated either with 350 μg BSA, Galectin-1, Galectin-2, CD7, integrin-β1 or OKT3 overnight at 37° C. using tilt rotation. After incubation, the beads were washed in 0.2 M Tris (pH 8.5 containing 0.1% BSA), and then incubated with 2×10⁶ PBT for 1 h at 37° C. […]

T1 sequence (P02769 25-607 limits assumed): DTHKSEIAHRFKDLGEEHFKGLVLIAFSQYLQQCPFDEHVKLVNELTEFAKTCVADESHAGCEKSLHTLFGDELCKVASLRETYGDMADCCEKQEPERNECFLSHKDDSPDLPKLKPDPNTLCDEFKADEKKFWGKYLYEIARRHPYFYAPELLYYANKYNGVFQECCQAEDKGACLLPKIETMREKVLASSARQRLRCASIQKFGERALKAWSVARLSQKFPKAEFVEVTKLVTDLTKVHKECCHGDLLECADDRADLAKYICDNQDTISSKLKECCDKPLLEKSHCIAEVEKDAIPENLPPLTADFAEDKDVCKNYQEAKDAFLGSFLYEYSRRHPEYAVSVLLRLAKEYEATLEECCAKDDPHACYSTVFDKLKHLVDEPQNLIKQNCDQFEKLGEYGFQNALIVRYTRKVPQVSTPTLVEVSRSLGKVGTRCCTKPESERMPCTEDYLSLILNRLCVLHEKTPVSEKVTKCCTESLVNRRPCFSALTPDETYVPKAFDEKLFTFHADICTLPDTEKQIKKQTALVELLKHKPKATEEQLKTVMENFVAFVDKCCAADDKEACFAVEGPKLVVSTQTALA

Molecule: galectin-1: prototype β-galactoside binding lectin used for comparison
cells adhering to collagen type I ([1]; without galectin 22.1±3.5%): 9.2±3.5%
cells adhering to fibronectin ([1]; without galectin 26.3±5.6%): 14.0±4.6%
cyclin B1 expression [2]: 1%
β4 integrin accessibility [3]: neither galectin-1 nor galectin-2 changed
integrin α5 accessibility ([3]; 50 μg/ml): downregulated
integrin β1 accessibility ([3]; 50 μg/ml): downregulated
integrin a5 accessibility ([3]; second statement): slightly upregulated
glycoproteins co-immunoprecipitated [4]: coimmunoprecipitates with CD3, CD7 and β1 integrin

Molecule: B1
binding result [5]: no binding

Molecule: B2
binding result [6]: no binding
